The NIST ThermoML archive (doi:10.1016/j.jct.2018.08.035)

Experiment: xn = mol fraction of the nth substance listed
Conditions: 100 kPa, Liquid, Vibrating tube method

CCC(O)CC [3-pentanol] + C[N+](=O)[O-]
Conditions	mass density [kg/m3]
291.36 K, x1 = 0.338	976.695
291.36 K, x1 = 0.363	976.137
291.36 K, x1 = 0.546	910.024
291.36 K, x1 = 0.587	897.278
291.36 K, x1 = 0.615	890.441
291.45 K, x1 = 0.246	1006.19
291.45 K, x1 = 0.275	994.165
291.45 K, x1 = 0.338	972.479
291.45 K, x1 = 0.382	968.647
291.45 K, x1 = 0.407	965.925
291.45 K, x1 = 0.414	965.499
291.45 K, x1 = 0.486	938.691
291.45 K, x1 = 0.488	935.781
291.45 K, x1 = 0.546	907.652
291.45 K, x1 = 0.573	900.812
291.45 K, x1 = 0.587	897.17
291.45 K, x1 = 0.615	890.332
291.46 K, x1 = 0.266	997.671
291.46 K, x1 = 0.3	984.765
291.46 K, x1 = 0.325	975.497
291.46 K, x1 = 0.363	971.707
291.55 K, x1 = 0.246	1006.07
291.55 K, x1 = 0.275	994.042
291.55 K, x1 = 0.382	965.717
291.55 K, x1 = 0.407	961.145
291.55 K, x1 = 0.414	961.374
291.55 K, x1 = 0.486	933.844
291.55 K, x1 = 0.488	932.33
291.55 K, x1 = 0.573	900.7
291.56 K, x1 = 0.266	997.549
291.56 K, x1 = 0.3	984.639
291.56 K, x1 = 0.325	975.358
291.56 K, x1 = 0.338	970.561
291.56 K, x1 = 0.363	967.75
291.56 K, x1 = 0.546	907.531
291.56 K, x1 = 0.587	897.059
291.56 K, x1 = 0.615	890.227
291.65 K, x1 = 0.246	1005.95
291.65 K, x1 = 0.266	997.425
291.65 K, x1 = 0.275	993.918
291.65 K, x1 = 0.325	975.23
291.65 K, x1 = 0.338	970.427
291.65 K, x1 = 0.363	961.876
291.65 K, x1 = 0.382	955.241
291.65 K, x1 = 0.407	957.953
291.65 K, x1 = 0.414	956.971
291.65 K, x1 = 0.486	923.683
291.65 K, x1 = 0.488	922.941
291.65 K, x1 = 0.546	907.417
291.65 K, x1 = 0.573	900.591
291.65 K, x1 = 0.615	890.121
291.66 K, x1 = 0.3	984.514
291.66 K, x1 = 0.587	896.95
291.75 K, x1 = 0.246	1005.83
291.75 K, x1 = 0.266	997.302
291.75 K, x1 = 0.275	993.795
291.75 K, x1 = 0.3	984.391
291.75 K, x1 = 0.325	975.108
291.75 K, x1 = 0.338	970.303
291.75 K, x1 = 0.363	961.743
291.75 K, x1 = 0.382	955.25
291.75 K, x1 = 0.414	944.629
291.75 K, x1 = 0.486	923.534
291.75 K, x1 = 0.488	922.803
291.75 K, x1 = 0.546	907.305
291.75 K, x1 = 0.573	900.482
291.75 K, x1 = 0.615	890.018
291.76 K, x1 = 0.407	947.126
291.76 K, x1 = 0.587	896.844
291.85 K, x1 = 0.246	1005.7
291.85 K, x1 = 0.275	993.671
291.85 K, x1 = 0.3	984.268
291.85 K, x1 = 0.338	970.173
291.85 K, x1 = 0.382	955.119
291.85 K, x1 = 0.414	944.718
291.85 K, x1 = 0.486	923.411
291.85 K, x1 = 0.573	900.371
291.85 K, x1 = 0.615	889.909
291.86 K, x1 = 0.266	997.179
